Measured values from ChEMBL document CHEMBL4308841, “Synthesis, in vitro antiproliferative activity, and kinase inhibitory effects of pyrazole-containing diarylureas and diarylamides” (Eur J Med Chem, 2018).

What was measured:
[1] = system: A549; experiment: Growth inhibition of human A549/ATCC cells incubated for 48 hrs by sulforhodamine B assay; format: functional, cell-based; settings: A549, 48 h
[2] = system: KM12; experiment: Growth inhibition of human KM12 cells incubated for 48 hrs by sulforhodamine B assay; format: functional, cell-based; settings: KM12, 48 h
[3] = system: SNB-75; experiment: Growth inhibition of human SNB75 cells incubated for 48 hrs by sulforhodamine B assay; format: functional, cell-based; settings: SNB-75, 48 h
[4] = system: SK-MEL-28; experiment: Growth inhibition of human SK-MEL-28 cells incubated for 48 hrs by sulforhodamine B assay; format: functional, cell-based; settings: SK-MEL-28, 48 h
[5] = system: UACC-257; experiment: Growth inhibition of human UACC257 cells incubated for 48 hrs by sulforhodamine B assay; format: functional, cell-based; settings: UACC-257, 48 h
[6] = system: UO-31; experiment: Growth inhibition of human UO31 cells incubated for 48 hrs by sulforhodamine B assay; format: functional, cell-based; settings: UO-31, 48 h
[7] = system: MDA-MB-231; experiment: Growth inhibition of human MDA-MB-231 cells incubated for 48 hrs by sulforhodamine B assay; format: functional, cell-based; settings: MDA-MB-231, 48 h
[8] = system: T47D; experiment: Growth inhibition of human T47D cells incubated for 48 hrs by sulforhodamine B assay; format: functional, cell-based
[9] = system: HL-60(TB); experiment: Growth inhibition of human HL-60(TB) cells assessed as cell growth at 0.01 uM incubated for 48 hrs by sulforhodamine B assay relative to control; format: functional; settings: HL-60, 48 h, read-out: Activity
[10] = system: K562; experiment: Growth inhibition of human K562 cells assessed as cell growth at 0.01 uM incubated for 48 hrs by sulforhodamine B assay relative to control; format: functional; settings: K562, 48 h, read-out: Activity
[11] = system: HT-29; experiment: Growth inhibition of human HT-29 cells assessed as cell growth at 0.01 uM incubated for 48 hrs by sulforhodamine B assay relative to control; format: functional; settings: HT-29, 48 h, read-out: Activity
[12] = system: Malme-3M; experiment: Growth inhibition of human MALME-3M cells assessed as cell growth at 0.01 uM incubated for 48 hrs by sulforhodamine B assay relative to control; format: functional; settings: read-out: Activity
[13] = system: CAKI-1; experiment: Growth inhibition of human Caki1 cells assessed as cell growth at 0.01 uM incubated for 48 hrs by sulforhodamine B assay relative to control; format: functional; settings: CAKI-1, 48 h, read-out: Activity
[14] = system: RXF 393; experiment: Growth inhibition of human RXF393 cells assessed as cell growth at 0.01 uM incubated for 48 hrs by sulforhodamine B assay relative to control; format: functional; settings: RXF 393, 48 h, read-out: Activity
[15] = system: MOLT-4; experiment: Growth inhibition of human MOLT4 cells assessed as cell growth at 0.1 uM incubated for 48 hrs by sulforhodamine B assay relative to control; format: functional; settings: MOLT-4, 48 h, read-out: Activity
[16] = system: U-251; experiment: Growth inhibition of human U251 cells assessed as cell growth at 0.1 uM incubated for 48 hrs by sulforhodamine B assay relative to control; format: functional; settings: U-251, 48 h, read-out: Activity
[17] = system: IGROV-1; experiment: Growth inhibition of human IGROV1 cells assessed as cell growth at 0.1 uM incubated for 48 hrs by sulforhodamine B assay relative to control; format: functional; settings: IGROV-1, 48 h, read-out: Activity
[18] = system: HL-60(TB); experiment: Growth inhibition of human HL-60(TB) cells assessed as cell growth at 1 uM incubated for 48 hrs by sulforhodamine B assay relative to control; format: functional; settings: HL-60, 48 h, read-out: Activity
[19] = system: HT-29; experiment: Growth inhibition of human HT-29 cells assessed as cell growth at 1 uM incubated for 48 hrs by sulforhodamine B assay relative to control; format: functional; settings: HT-29, 48 h, read-out: Activity
[20] = system: M14; experiment: Growth inhibition of human M14 cells assessed as cell growth at 1 uM incubated for 48 hrs by sulforhodamine B assay relative to control; format: functional; settings: M14, 48 h, read-out: Activity
[21] = system: PC-3; experiment: Growth inhibition of human PC3 cells assessed as cell growth at 1 uM incubated for 48 hrs by sulforhodamine B assay relative to control; format: functional; settings: PC-3, 48 h, read-out: Activity
[22] = system: MCF7; experiment: Growth inhibition of human MCF7 cells assessed as cell growth at 1 uM incubated for 48 hrs by sulforhodamine B assay relative to control; format: functional; settings: MCF7, 48 h, read-out: Activity
[23] = system: MDA-MB-468; experiment: Growth inhibition of human MDA-MB-468 cells assessed as cell growth at 1 uM incubated for 48 hrs by sulforhodamine B assay relative to control; format: functional; settings: MDA-MB-468, 48 h, read-out: Activity
[24] = system: CCRF-CEM; experiment: Growth inhibition of human CCRF-CEM cells assessed as cell growth at 100 uM incubated for 48 hrs by sulforhodamine B assay relative to control; format: functional; settings: read-out: Activity
[25] = system: HL-60(TB); experiment: Growth inhibition of human HL-60(TB) cells assessed as cell growth at 100 uM incubated for 48 hrs by sulforhodamine B assay relative to control; format: functional; settings: HL-60, 48 h, read-out: Activity
[26] = system: MOLT-4; experiment: Growth inhibition of human MOLT4 cells assessed as cell growth at 100 uM incubated for 48 hrs by sulforhodamine B assay relative to control; format: functional; settings: MOLT-4, 48 h, read-out: Activity
[27] = system: SR; experiment: Growth inhibition of human SR cells assessed as cell growth at 100 uM incubated for 48 hrs by sulforhodamine B assay relative to control; format: functional; settings: read-out: Activity
[28] = system: HCT-116; experiment: Growth inhibition of human HCT116 cells assessed as cell growth at 100 uM incubated for 48 hrs by sulforhodamine B assay relative to control; format: functional; settings: HCT-116, 48 h, read-out: Activity
[29] = system: NCI/ADR-RES; experiment: Growth inhibition of human NCI/ADR-RES cells assessed as cell growth at 100 uM incubated for 48 hrs by sulforhodamine B assay relative to control; format: functional; settings: read-out: Activity
[30] = read-out: LC50 (the source's name)
[31] = read-out: pLC50 (the source's name) (converted)

SMILES: COc1cc(Cl)cc(-c2nn(-c3cccc(NC(=O)Nc4cc(C(F)(F)F)cc(C(F)(F)F)c4)c3)cc2-c2ccncc2)c1
- IC50 [1]: 370 nM
- GI50 ([1]; read-out: GI50): 372 nM
- CC50 [1, 30]: 3480 nM
- TGI ([1]; read-out: TGI): 4680 nM
- GI50 ([1]; read-out: pGI50 (converted)): 372 nM
- CC50 [1, 31]: 34700 nM
- TGI ([1]; read-out: pTGI (converted)): 4680 nM
- IC50 [2]: 510 nM
- GI50 ([2]; read-out: GI50): 606 nM
- CC50 [2, 30]: 27.9 nM
- TGI ([2]; read-out: TGI): 2750 nM
- GI50 ([2]; read-out: pGI50 (converted)): 501 nM
- CC50 [2, 31]: 28200 nM
- TGI ([2]; read-out: pTGI (converted)): 2750 nM
- IC50 [3]: 850 nM
- GI50 ([3]; read-out: GI50): 848 nM
- TGI ([3]; read-out: TGI): 5830 nM
- GI50 ([3]; read-out: pGI50 (converted)): 851 nM
- CC50 [3, 31]: 70800 nM
- TGI ([3]; read-out: pTGI (converted)): 5890 nM
- IC50 [4]: 900 nM
- GI50 ([4]; read-out: GI50): 900 nM
- TGI ([4]; read-out: TGI): 4930 nM
- GI50 ([4]; read-out: pGI50 (converted)): 891 nM
- CC50 [4, 31]: 69200 nM
- TGI ([4]; read-out: pTGI (converted)): 4900 nM
- IC50 [5]: 410 nM
- GI50 ([5]; read-out: GI50): 412 nM
- CC50 [5, 30]: 70 nM
- TGI ([5]; read-out: TGI): 1840 nM
- GI50 ([5]; read-out: pGI50 (converted)): 407 nM
- CC50 [5, 31]: 7080 nM
- TGI ([5]; read-out: pTGI (converted)): 1860 nM
- IC50 [6]: 260 nM
- GI50 ([6]; read-out: GI50): 254 nM
- CC50 [6, 30]: 59.7 nM
- TGI ([6]; read-out: TGI): 1580 nM
- GI50 ([6]; read-out: pGI50 (converted)): 263 nM
- CC50 [6, 31]: 6920 nM
- TGI ([6]; read-out: pTGI (converted)): 1580 nM
- IC50 [7]: 460 nM
- GI50 ([7]; read-out: GI50): 456 nM
- TGI ([7]; read-out: TGI): 1860 nM
- GI50 ([7]; read-out: pGI50 (converted)): 457 nM
- CC50 [7, 31]: 5370 nM
- TGI ([7]; read-out: pTGI (converted)): 1860 nM
- IC50 [8]: 390 nM
- GI50 ([8]; read-out: GI50): 390 nM
- CC50 [8, 30]: > 100000 nM
- TGI ([8]; read-out: TGI): 4160 nM
- GI50 ([8]; read-out: pGI50 (converted)): 389 nM
- CC50 [8, 31]: > 100000 nM
- TGI ([8]; read-out: pTGI (converted)): 4170 nM
- growth at 0.01 µM [9]: 92%
- growth at 0.01 µM [10]: 97%
- growth at 0.01 µM [11]: 102%
- growth at 0.01 µM [12]: 92%
- growth at 0.01 µM [13]: 97%
- growth at 0.01 µM [14]: 96%
- growth at 0.1 µM [15]: 87%
- growth at 0.1 µM [16]: 91%
- growth at 0.1 µM [17]: 104%
- growth at 1 µM [18]: 14%
- growth at 1 µM [19]: 23%
- growth at 1 µM [20]: 25%
- growth at 1 µM [21]: 5%
- growth at 1 µM [22]: 21%
- growth at 1 µM [23]: 15%
- growth at 100 µM [24]: -29%
- growth at 100 µM [25]: -8%
- growth at 100 µM [26]: -34%
- growth at 100 µM [27]: -8%
- growth at 100 µM [28]: -88%
- growth at 100 µM [29]: -12%
